From ChEMBL document CHEMBL5247584, “Design, synthesis and evaluation of fused hybrids with acetylcholinesterase inhibiting and Nrf2 activating functions for Alzheimer's disease” (Eur J Med Chem, 2022)
Activity calls are given as the source filed them. The calls are words filed in the database; no cut-off is given here.

Experiments:
[1] = system: HepG2-ARE-C8; assay: Cytotoxicity against human HepG2-ARE-C8 cells assessed as reduction in cell viability at 5 and 20 uM measured for 24 hrs by MTT assay; format: functional, cell-based
[2] = system: HepG2-ARE-C8; assay: Activation of Nrf2-ARE pathway in human HepG2-ARE-C8 cells at 20 uM measured for 24 hrs by ARE-luciferase assay; format: cell-based; conditions: filed as activator
[3] = target: Acetylcholinesterase (Electrophorus electricus, UniProt O42275); assay: Inhibition of electric eel AChE using ATC and BTC iodide as substrate preincubated for 5 mins followed by substrate addition and measured after 2 mins by DTNB reagent based assay
[4] = target: Cholinesterase (Equus caballus, UniProt P81908); assay: Inhibition of equine serum BuChE using ATC and BTC iodide as substrate preincubated for 5 mins followed by substrate addition and measured after 2 mins by DTNB reagent based assay
[5] = target: Acetylcholinesterase (Homo sapiens, UniProt P22303); assay: Inhibition of human AChE using ATC and BTC iodide as substrate preincubated for 5 mins followed by substrate addition and measured after 2 mins by DTNB reagent based assay
[6] = system: Mus musculus; assay: Antialzheimer activity against Abeta1-42-induced cognitive impairment ICR mouse model assessed as increase in arrival time at 10 mg/kg, IG administered for 3 to 14 days and measured after 9 to 14 days in presence of donepezil by Morris water maze test; format: functional, organism-based; conditions: time 9-14 day
[7] = system: Mus musculus; assay: Antialzheimer activity against Abeta1-42-induced cognitive impairment ICR mouse model assessed as increase in distance to reach target at 10 mg/kg, IG administered for 3 to 14 days and measured after 9 to 14 days in presence of donepezil by Morris water maze test; format: functional, organism-based; conditions: time 9-14 day
[8] = system: Mus musculus; assay: Antialzheimer activity against Abeta1-42-induced cognitive impairment ICR mouse model assessed as increase in escape latency at 10 mg/kg, IG administered for 3 to 14 days and measured after 9 to 14 days in presence of donepezil by Morris water maze test; format: functional, organism-based; conditions: time 9-14 day
[9] = system: Mus musculus; assay: Cognitive enhancing effect in amyloid beta (1 to 42)-induced ICR mouse model assessed as increase in ACh level at 20 mg/kg […] in presence of donepezil by ELISA; format: functional, organism-based
[10] = system: Mus musculus; assay: Antialzheimer activity against Abeta1-42-induced cognitive impairment ICR mouse model assessed as confuse escape tracks at 10 mg/kg, IG administered for 3 to 14 days and measured after 9 to 14 days in presence of donepezil by Morris water maze test; format: functional, organism-based; conditions: time 9-14 day
[11] = compound: Cc1ccc(-c2noc(-c3cccc(OCC4CCN(Cc5cccc(F)c5)CC4)c3)n2)cn1; assay: Non-competitive inhibition of human AChE assessed as decrease in substrate Vmax with constant Km by Lineweaver-Burk plot analysis

Chain of Cholinesterase (P81908 whole entry): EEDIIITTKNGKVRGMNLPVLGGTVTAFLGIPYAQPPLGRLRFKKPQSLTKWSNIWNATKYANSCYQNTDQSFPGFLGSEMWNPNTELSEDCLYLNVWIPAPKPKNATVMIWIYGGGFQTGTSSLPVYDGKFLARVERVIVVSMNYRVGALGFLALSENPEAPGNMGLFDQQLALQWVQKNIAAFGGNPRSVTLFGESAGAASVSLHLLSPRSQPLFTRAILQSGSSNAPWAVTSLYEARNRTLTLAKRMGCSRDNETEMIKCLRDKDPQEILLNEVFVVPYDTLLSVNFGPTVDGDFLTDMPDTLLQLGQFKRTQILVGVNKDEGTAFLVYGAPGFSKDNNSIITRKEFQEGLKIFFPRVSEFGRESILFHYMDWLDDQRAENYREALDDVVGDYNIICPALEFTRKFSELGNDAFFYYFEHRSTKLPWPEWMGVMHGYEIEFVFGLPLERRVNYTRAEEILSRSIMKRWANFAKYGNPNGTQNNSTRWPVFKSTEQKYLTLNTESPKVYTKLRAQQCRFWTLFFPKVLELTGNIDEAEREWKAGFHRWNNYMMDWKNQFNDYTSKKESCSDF
Chain of Acetylcholinesterase (Electrophorus electricus, UniProt O42275) (O42275 whole entry): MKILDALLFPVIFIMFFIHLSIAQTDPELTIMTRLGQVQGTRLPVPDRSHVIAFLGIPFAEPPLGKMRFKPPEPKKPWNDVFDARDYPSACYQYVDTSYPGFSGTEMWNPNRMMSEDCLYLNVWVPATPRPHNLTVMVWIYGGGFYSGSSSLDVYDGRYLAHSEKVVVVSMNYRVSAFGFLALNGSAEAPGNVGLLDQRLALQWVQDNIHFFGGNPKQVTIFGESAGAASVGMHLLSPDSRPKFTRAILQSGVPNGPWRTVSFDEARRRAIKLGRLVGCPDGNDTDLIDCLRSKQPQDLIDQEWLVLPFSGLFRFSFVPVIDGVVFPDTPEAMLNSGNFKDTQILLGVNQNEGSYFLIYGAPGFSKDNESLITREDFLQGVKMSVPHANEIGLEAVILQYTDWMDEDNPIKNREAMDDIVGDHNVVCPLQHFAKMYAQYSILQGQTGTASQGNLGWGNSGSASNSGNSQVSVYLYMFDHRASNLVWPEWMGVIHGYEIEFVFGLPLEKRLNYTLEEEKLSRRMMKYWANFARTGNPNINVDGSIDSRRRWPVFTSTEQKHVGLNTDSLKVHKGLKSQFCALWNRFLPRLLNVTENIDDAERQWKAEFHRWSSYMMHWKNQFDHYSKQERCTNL

In the case of `Cc1ccc(-c2noc(-c3cccc(OCC4CCN(Cc5ccc(C(F)(F)F)cc5)CC4)c3)n2)cn1`, the Activity [1] is reported as “inactive”, the Activity [2] is reported as “Active” and the IC50 [3] is reported as over 100 µM. For the same molecule, the IC50 [4] was over 100 µM.

`Cc1ccc(-c2noc(-c3cccc(OCC4CCCN(Cc5ccccc5F)C4)c3)n2)cn1` (configuration not stated) was tested, and the Activity [1] was “inactive”, the IC50 [3] was 8.14 µM and the IC50 [4] was 17.6 µM.

In the case of `Cc1ccc(-c2noc(-c3cccc(OCC4CCCN(Cc5ccccc5)C4)c3)n2)cn1` (configuration not stated), the Activity [1] is reported as “inactive”, the IC50 [3] is reported as 6.46 µM and the IC50 [4] is reported as 2.78 µM.

With `Cc1ccc(-c2noc(-c3cccc(OCC4CCN(Cc5ccccc5)CC4)c3)n2)cn1` the IC50 [5] was 0.74 µM, the Activity [1] was “inactive” and the IC50 [3] was 0.29 µM. The IC50 [4] was 5.05 µM.

`Cc1ccc(-c2noc(-c3cccc(OCC4CCN(C(=O)c5ccc(F)cc5)CC4)c3)n2)cn1` was tested, and the Activity [1] was “inactive”, the IC50 [3] was over 100 µM and the IC50 [4] was over 100 µM.

`Cc1ccc(-c2noc(-c3cccc(OCC4CCCN(C(=O)c5ccc(F)cc5)C4)c3)n2)cn1` (configuration not stated) was tested, and the Activity [1] was “inactive”, the IC50 [3] was 4.37 µM and the IC50 [4] was 5.78 µM.

With `Cc1ccc(CN2CCC(COc3cccc(-c4nc(-c5ccc(C)nc5)no4)c3)CC2)cc1` the Activity [1] was “inactive”, the IC50 [3] was over 100 µM and the IC50 [4] was 6.34 µM.

For `COc1ccc(CN2CCC(COc3cccc(-c4nc(-c5ccc(C)nc5)no4)c3)CC2)cc1`, the Activity [1] was “inactive”, the IC50 [3] was over 100 µM and the IC50 [4] was over 100 µM.

For `Cc1ccc(-c2noc(-c3cccc(OCC4CCN(Cc5cccc(Cl)c5)CC4)c3)n2)cn1`, the Activity [1] was “inactive”, the IC50 [3] was 2.29 µM and the IC50 [4] was over 100 µM.

In the case of `Cc1ccc(-c2noc(-c3cccc(OCC4CCCN(C(=O)c5ccccc5)C4)c3)n2)cn1` (configuration not stated), the Activity [1] is reported as “inactive”, the Activity [2] is reported as “Active” and the IC50 [3] is reported as 15.9 µM. For the same molecule, the IC50 [4] was 13.8 µM.

In the case of `Cc1ccc(-c2noc(-c3cccc(OCC4CCN(Cc5ccncc5)CC4)c3)n2)cn1`, the Activity [1] is reported as “inactive”, the IC50 [3] is reported as 16.8 µM and the IC50 [4] is reported as over 100 µM.

`Cc1ccc(-c2noc(-c3ccc(F)c(F)c3)n2)cn1` was tested, and the Activity [6] was “Active”, the Activity [7] was “Active” and the Activity [8] was “Active”. The Activity [9] was “Active” and the Activity [10] was “Active”.

For `Cc1ccc(-c2noc(-c3cccc(OCC4CCN(C(=O)c5ccccc5)CC4)c3)n2)cn1`, the Activity [1] was “inactive”, the IC50 [3] was 59.4 µM and the IC50 [4] was over 100 µM.

In the case of `Cc1ccc(-c2noc(-c3cccc(OCC4CCN(Cc5ccc(C)c(C)c5)CC4)c3)n2)cn1`, the Activity [1] is reported as “inactive”, the IC50 [3] is reported as 5.64 µM and the IC50 [4] is reported as over 100 µM.

In the case of `Cc1ccc(-c2noc(-c3cccc(OCC4CCN(Cc5ccc(Br)o5)CC4)c3)n2)cn1`, the Activity [1] is reported as “inactive”, the IC50 [3] is reported as 3.18 µM and the IC50 [4] is reported as over 100 µM.

For `Cc1ccc(CN2CCCC(COc3cccc(-c4nc(-c5ccc(C)nc5)no4)c3)C2)cc1` (configuration not stated), the Activity [1] was “inactive”, the IC50 [3] was 5.39 µM and the IC50 [4] was over 100 µM.

`Cc1ccc(-c2noc(-c3cccc(OCC4CCN(Cc5ccc(Br)cc5)CC4)c3)n2)cn1` was tested, and the Activity [1] was “inactive”, the IC50 [3] was over 100 µM and the IC50 [4] was over 100 µM.

With `Cc1ccc(-c2noc(-c3cccc(OCC4CCN(Cc5ccc(C(C)(C)C)cc5)CC4)c3)n2)cn1` the Activity [1] was “inactive”, the Activity [2] was “Active” and the IC50 [3] was over 100 µM. It also gave an IC50 [4] of over 100 µM.

For `Cc1ccc(-c2noc(-c3cccc(OCC4CCN(Cc5ccc(Cl)o5)CC4)c3)n2)cn1`, the Activity [1] was “inactive”, the IC50 [3] was 2 µM and the IC50 [4] was over 100 µM.

With `Cc1ccc(-c2noc(-c3cccc(OCC4CCN(Cc5ccc(F)cc5)CC4)c3)n2)cn1` the IC50 [5] was 2.99 µM, the Activity [1] was “inactive” and the IC50 [3] was 0.56 µM. For the same molecule, the IC50 [4] was 1.36 µM.

For `Cc1ccc(-c2noc(-c3cccc(OCC4CCN(Cc5ccc(C#N)cc5)CC4)c3)n2)cn1`, the Activity [1] was “inactive”, the IC50 [3] was 71.4 µM and the IC50 [4] was over 100 µM.

In the case of `Cc1ccc(-c2noc(-c3cccc(OCC4CCN(Cc5ccccc5F)CC4)c3)n2)cn1`, the IC50 [5] is reported as 0.29 µM, the Activity [1] is reported as “inactive” and the IC50 [3] is reported as 0.1 µM. It also gave an IC50 [4] of 15.5 µM.

In the case of `Cc1ccc(-c2noc(-c3cccc(OCC4CCN(Cc5ccc(Cl)cc5)CC4)c3)n2)cn1`, the Activity [1] is reported as “inactive”, the IC50 [3] is reported as over 100 µM and the IC50 [4] is reported as over 100 µM.

`Cc1ccc(-c2noc(-c3cccc(OCC4CCN(Cc5ccccc5Cl)CC4)c3)n2)cn1` was tested, and the IC50 [5] was 0.57 µM, the Activity [1] was “inactive” and the IC50 [3] was 0.55 µM. It also gave an IC50 [4] of over 100 µM.

`Cc1ccc(-c2noc(-c3cccc(OCC4CCN(Cc5ccc(F)c(F)c5)CC4)c3)n2)cn1` was tested, and the Activity [1] was “inactive”, the IC50 [3] was 13.9 µM and the IC50 [4] was 1.66 µM.

For `Cc1ccc(-c2noc(-c3cccc(OCC4CCN(Cc5cccnc5)CC4)c3)n2)cn1`, the Activity [1] was “inactive”, the IC50 [3] was 1.28 µM and the IC50 [4] was 3.93 µM.

With `Cc1ccc(-c2noc(-c3cccc(OCC4CCCN(Cc5ccc(F)cc5)C4)c3)n2)cn1` (configuration not stated) the Activity [1] was “inactive”, the IC50 [3] was over 100 µM and the IC50 [4] was 4.28 µM.

In the case of `Cc1ccc(-c2noc(-c3cccc(OCC4CCN(Cc5ccccn5)CC4)c3)n2)cn1`, the Activity [1] is reported as “inactive”, the IC50 [3] is reported as 1.92 µM and the IC50 [4] is reported as 5.03 µM.

In the case of `Cc1ccc(-c2noc(-c3cccc(OCC4CCN(Cc5ccco5)CC4)c3)n2)cn1`, the Activity [1] is reported as “inactive”, the IC50 [3] is reported as 2.53 µM and the IC50 [4] is reported as over 100 µM.

B1: Acetylcholinesterase (Homo sapiens), P22303 (protein)
chain: MRPPQCLLHTPSLASPLLLLLLWLLGGGVGAEGREDAELLVTVRGGRLRGIRLKTPGGPVSAFLGIPFAEPPMGPRRFLPPEPKQPWSGVVDATTFQSVCYQYVDTLYPGFEGTEMWNPNRELSEDCLYLNVWTPYPRPTSPTPVLVWIYGGGFYSGASSLDVYDGRFLVQAERTVLVSMNYRVGAFGFLALPGSREAPGNVGLLDQRLALQWVQENVAAFGGDPTSVTLFGESAGAASVGMHLLSPPSRGLFHRAVLQSGAPNGPWATVGMGEARRRATQLAHLVGCPPGGTGGNDTELVACLRTRPAQVLVNHEWHVLPQESVFRFSFVPVVDGDFLSDTPEALINAGDFHGLQVLVGVVKDEGSYFLVYGAPGFSKDNESLISRAEFLAGVRVGVPQVSDLAAEAVVLHYTDWLHPEDPARLREALSDVVGDHNVVCPVAQLAGRLAAQGARVYAYVFEHRASTLSWPLWMGVPHGYEIEFIFGIPLDPSRNYTAEEKIFAQRLMRYWANFARTGDPNEPRDPKAPQWPPYTAGAQQYVSLDLRPLEVRRGLRAQACAFWNRFLPKLLSATDTLDEAERQWKAEFHRWSSYMVHWKNQFDHYSKQDRCSDL
With B1 the Km [11] was 0.233 µM.
